In publication PMC5619818, “Exploring Lactobacillus reuteri DSM20016 as a biocatalyst for transformation of longer chain 1,2-diols: Limits with microcompartment” (PLoS ONE, 2017):

T1: PduQ (1,3-propanediol oxidoreductase) (Limosilactobacillus reuteri, UniProt A5VM99)
T1 construct: gene Lreu_1734
T1 sequence (A5VM99 1-373): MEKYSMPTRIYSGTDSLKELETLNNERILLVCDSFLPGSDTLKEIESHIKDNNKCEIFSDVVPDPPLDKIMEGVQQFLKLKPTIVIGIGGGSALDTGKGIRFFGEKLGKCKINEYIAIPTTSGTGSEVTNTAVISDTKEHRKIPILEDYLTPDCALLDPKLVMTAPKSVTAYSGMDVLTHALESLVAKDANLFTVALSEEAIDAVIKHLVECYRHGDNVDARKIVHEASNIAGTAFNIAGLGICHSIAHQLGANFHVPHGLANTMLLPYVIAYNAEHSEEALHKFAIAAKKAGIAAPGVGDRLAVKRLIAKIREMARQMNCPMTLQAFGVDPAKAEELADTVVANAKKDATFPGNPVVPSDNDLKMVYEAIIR

B1: PduQ (1,3-propanediol oxidoreductase) (Limosilactobacillus reuteri subsp. reuteri) (protein)
chain: T1 sequence (A5VM99 1-373)
B2: PduP (coenzyme-A acylating propionaldehyde dehydrogenase) (Limosilactobacillus reuteri subsp. reuteri) (protein)
chain: MQINDIESAVRKILAEELDNASSSSANVAATTDNGHRGIFTNVNDAIAAAKAAQEIYRDKPIAVRQQVIDAIKEGFRPYIEKMAKDIKEETGMGTVEAKIAKLNNALYNTPGPEILEPVVENGDGGMVMYERLPYGVIGAVGPSTNPSETVIANAIMMLAGGNTLYFGAHPGAKNVTRWTIEKMNDFIADATGLHNLVVSIETPTIESVQQMMKHPDIAMLAVTGGPAVVHQAMTSGKKAVGAGPGNPPAMVDATADIDLAAHNIITSASFDNDILCTAEKEVVAESSIKDELIRKMQDEGAFVVNREQADKLADMCIQENGAPDRKFVGKDATYILDQANIPYTGHPVEIICELPKEHPLVMTEMLMPILPVVSCPTFDDVLKTAVEVEKGNHHTATIHSNNLKHINNAAHRMQCSIFVVNGPSYVGTGVADNGAHSGASALTIATPTGEGTCTARTFTRRVRLNSPQGFSVRNWY

Legend:
[1] = target: T1, PduQ (1,3-propanediol oxidoreductase); assay: NADH oxidation at […] nm; assay type: biochemical; conditions: NADH 0.2 mM, 50 mM potassium phosphate pH 7.0; aldehyde reduction
[2] = target: T2, PduP (coenzyme-A acylating propionaldehyde dehydrogenase) (Limosilactobacillus reuteri, UniProt A5VMA0); assay: NADH formation at […] nm; assay type: biochemical; conditions: NAD+ 5 mM, HS-CoA 0.43 mM, 50 mM potassium phosphate pH 7.0, 1 mM DTT, 30 °C
T2 construct: gene Lreu_1735

purified protein = substrate: O=CCCO; assay: purified protein; assay type: biochemical, Limosilactobacillus reuteri

Row | Molecule | Km [1] | Km [2] | Km (purified protein; NADH 0.2 mM, 50 mM potassium phosphate pH 7.0, aldehyde reduction) [mM] | Km (purified protein; NAD+ 5 mM, HS-CoA 0.43 mM, 50 mM potassium phosphate pH 7.0, 1 mM DTT, 30 °C) [mM]
1 | CCCCCCCC=O [Octanaldehyde] | Pentanaldehyde (C5)< Hexanaldehyde (C6)< Octanaldehyde (C8) | Pentanaldehyde (C5)< Hexanaldehyde (C6)< Octanaldehyde (C8) |  | 
2 | CCCCCCCCCC=O [Decylaldehyde] | Hexanaldehyde (C6)< Octanaldehyde (C8)< Decylaldehyde (C10) | Hexanaldehyde (C6)< Octanaldehyde (C8)< Decylaldehyde (C10) |  | 
3 | B1 |  |  | 28.7 | 
4 | B2 |  |  |  | 10.1
